Square brackets hold non-standard residues; d marks the D form. Peptide text beside a SMILES is read from it. pGlu = O=C1CC[C@@H](C(=O)O)N1
Experiments:
[1] = system: myelopoietic system; test: injection of peptide into mice, effect on hemopoiesis; format: in vivo
[2] = system: granulopoiesis; test: activity as granulopoiesis inhibition factor
From the text: Due to the minute amounts of the natural granulopoiesis factor available, the structure of the natural substance has not been determined. It has never been obtained in crystalline or completely pure form and it is not known whether this could be achieved using material from natural sources only. In contrast, the peptides of the invention can be obtained in crystalline form suitable for pharmaceutical use and in relatively large quantities, free from contaminating peptides and proteins of natural origin.

[3] = injected into mice at a relatively low dose level
[4] = mice, injections at 10^-5 M for six successive days

| SMILES | production of myelopoietic cells after treatment ([1]; after treatment with the peptide, inhibitory effect reversible, normal cell population overshoots temporarily) | effect on other cell lineages deriving from the pluripotent stem cells [1, 3] | effect on the myelopoietic system (morphologically recognisable cells and committed stem cells) [1, 3] | effect on the whole hemopoietic system, including production of lymphocytes ([1]; mice, 10^-5 M for three weeks) | peripheral granulocytes ([1]; mice, concentration of 10^-7 M in the extracellular fluid, greatest in the mature cells) | pluripotent stem cells and production of erythrocytes [1, 4] | population of committed stem cells [1, 4] | granulopoiesis inhibition activity [2] |
| --- | --- | --- | --- | --- | --- | --- | --- | --- |
| NCCCC[C@H](NC(=O)[C@H](CS)NC(=O)[C@H](CC(=O)O)NC(=O)[C@H](CCC(=O)O)NC(=O)[C@@H]1CCC(=O)N1)C(=O)O [Compound (1), L-pyroGlutamyl-L-glutamyl-L-aspartyl-L-cysteinyl-L-lysine] ([pGlu]EDCK-OH) | temporarily abnormally increased | not affected | selective inhibition of the myelopoietic system | strong stimulation | marked decrease | reduced | strong reduction |  |
| NCCCC[C@H](NC(=O)[C@H](CS)NC(=O)[C@H](CC(=O)O)NC(=O)[C@H](CC(=O)O)NC(=O)[C@@H]1CCC(=O)N1)C(=O)O [pyroGlu-Asp-Asp-Cys-LysOH] ([pGlu]DDCK-OH) |  |  |  |  |  |  |  | inactive |
